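Each compound was tested at five concentrations against cells in 96-well plates for 48 hours. At the GI50, growth is halved.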 Activity calls are given as the source filed them. Cut-off read from the data, not from the text of the source: active = GI50 up to about 1.1 µM and inactive = higher.
How the values were obtained:
Test in all cases: NCI-60 cell line screen, 48 h
RXF 393 = system: RXF 393
OVCAR-8 = system: OVCAR-8
M14 = system: M14
UO-31 = system: UO-31
CCRF-CEM = system: CCRF-CEM
T47D = system: T47D
DMS-273 = system: DMS-273
SNB-19 = system: SNB-19
SNB-78 = system: SNB-78
UACC-257 = system: UACC-257
IGROV-1 = system: IGROV-1
CAKI-1 = system: CAKI-1
HT-29 = system: HT-29
KM12 = system: KM12
KM-20L2 = system: KM-20L2
SNB-75 = system: SNB-75
A549 = system: A549
RPMI-8226 = system: RPMI-8226
SR = system: SR
HL-60 = system: HL-60
NCI-H460 = system: NCI-H460
BT-549 = system: BT-549
DLD-1 = system: DLD-1
A498 = system: A498
HOP-18 = system: HOP-18
COLO 205 = system: COLO 205
MOLT-4 = system: MOLT-4
XF498 = system: XF498
DMS-114 = system: DMS-114
SF-539 = system: SF-539
HCT-15 = system: HCT-15
NCI-H226 = system: NCI-H226
SF-268 = system: SF-268
SN12C = system: SN12C
Malme-3M = system: Malme-3M
SK-MEL-5 = system: SK-MEL-5
SW-620 = system: SW-620
MDA-MB-435 = system: MDA-MB-435
Hs-578T = system: Hs-578T
MDA-MB-231 = system: MDA-MB-231
ACHN = system: ACHN
LOX IMVI = system: LOX IMVI
K562 = system: K562
OVCAR-4 = system: OVCAR-4
HCC 2998 = system: HCC 2998
HCT-116 = system: HCT-116
U-251 = system: U-251
LXFL 529 = system: LXFL 529
NCI-H522 = system: NCI-H522
SK-OV-3 = system: SK-OV-3
TK-10 = system: TK-10
UACC-62 = system: UACC-62
M19-MEL = system: M19-MEL
EKVX = system: EKVX
PC-3 = system: PC-3
NCI-H23 = system: NCI-H23
DU-145 = system: DU-145
OVCAR-3 = system: OVCAR-3
SK-MEL-28 = system: SK-MEL-28
OVCAR-5 = system: OVCAR-5
786-0 = system: 786-0
HOP-62 = system: HOP-62
SF-295 = system: SF-295
MCF7 = system: MCF7
SK-MEL-2 = system: SK-MEL-2
HOP-92 = system: HOP-92

In the case of Cc1ccc(NC(=O)NC(=O)c2ccc([N+](=O)[O-])cc2[N+](=O)[O-])cc1Oc1ncc(Cl)cn1, the GI50 (RXF 393) is reported as 0.175 µM (active), the GI50 (OVCAR-8) is reported as 0.468 µM (active) and the GI50 (M14) is reported as 0.38 µM (active). For the same molecule, the GI50 (UO-31) was 0.735 µM (active), the GI50 (CCRF-CEM) was 0.292 µM (active) and the GI50 (T47D) was 12.7 µM (inactive). The GI50 (DMS-273) was 0.318 µM (active), the GI50 (SNB-19) was 0.48 µM (active) and the GI50 (SNB-78) was 0.346 µM (active). The GI50 (UACC-257) was 0.689 µM (active), the GI50 (IGROV-1) was 1.13 µM (inactive) and the GI50 (CAKI-1) was 0.479 µM (active). The GI50 (HT-29) was 0.3 µM (active), the GI50 (KM12) was 0.252 µM (active) and the GI50 (KM-20L2) was 0.234 µM (active). The GI50 (SNB-75) was 0.0752 µM (active), the GI50 (A549) was 0.542 µM (active) and the GI50 (RPMI-8226) was 0.292 µM (active). For the same molecule, the GI50 (SR) was 409 nM (active), the GI50 (HL-60) was 0.218 µM (active) and the GI50 (NCI-H460) was 0.338 µM (active). The GI50 (BT-549) was 17.9 µM (inactive), the GI50 (DLD-1) was 0.421 µM (active) and the GI50 (A498) was 0.5 µM (active). For the same molecule, the GI50 (HOP-18) was 10.3 µM (inactive), the GI50 (COLO 205) was 0.415 µM (active) and the GI50 (MOLT-4) was 0.362 µM (active). For the same molecule, the GI50 (XF498) was 843 nM (active), the GI50 (DMS-114) was 0.484 µM (active) and the GI50 (SF-539) was 0.287 µM (active). For the same molecule, the GI50 (HCT-15) was 440 nM, the GI50 (NCI-H226) was 0.449 µM (active) and the GI50 (SF-268) was 0.713 µM (active). For the same molecule, the GI50 (SN12C) was 0.578 µM (active), the GI50 (Malme-3M) was 0.0925 µM (active) and the GI50 (SK-MEL-5) was 0.195 µM (active). The GI50 (SW-620) was 0.332 µM (active), the GI50 (MDA-MB-435) was 63 nM (active) and the GI50 (Hs-578T) was 50 nM (active). The GI50 (MDA-MB-231) was 614 nM (active), the GI50 (ACHN) was 1.33 µM (inactive) and the GI50 (LOX IMVI) was 0.637 µM (active). For the same molecule, the GI50 (K562) was 0.275 µM (active), the GI50 (OVCAR-4) was 11.4 µM (inactive) and the GI50 (HCC 2998) was 0.271 µM (active). The GI50 (HCT-116) was 0.333 µM (active), the GI50 (U-251) was 0.208 µM (active) and the GI50 (LXFL 529) was 0.36 µM (active). For the same molecule, the GI50 (NCI-H522) was 0.195 µM (active), the GI50 (SK-OV-3) was 0.908 µM (active) and the GI50 (TK-10) was 14.4 µM (inactive). For the same molecule, the GI50 (UACC-62) was 0.229 µM (active), the GI50 (M19-MEL) was 0.741 µM (active) and the GI50 (EKVX) was > 10 µM (inactive). The GI50 (PC-3) was 117 nM (active), the GI50 (NCI-H23) was 0.564 µM (active) and the GI50 (DU-145) was 731 nM (active). For the same molecule, the GI50 (OVCAR-3) was 0.355 µM (active), the GI50 (SK-MEL-28) was 2.9 µM (inactive) and the GI50 (OVCAR-5) was 0.828 µM (active). The GI50 (786-0) was 0.466 µM (active), the GI50 (HOP-62) was 0.277 µM (active) and the GI50 (SF-295) was 406 nM (active). For the same molecule, the GI50 (MCF7) was 164 nM (active).
CCOP(=O)(OCC)C(C(=O)OC)C(=O)C(=O)Nc1ccc(Cl)cc1Cl (stereo not given) was tested, and the GI50 (RXF 393) was 65.3 µM (inactive), the GI50 (OVCAR-8) was > 100 µM (inactive) and the GI50 (M14) was > 100 µM (inactive). The GI50 (UO-31) was > 100 µM (inactive), the GI50 (CCRF-CEM) was > 100 µM (inactive) and the GI50 (DMS-273) was > 100 µM (inactive). For the same molecule, the GI50 (SNB-19) was > 100 µM (inactive), the GI50 (SNB-78) was > 100 µM (inactive) and the GI50 (UACC-257) was > 100 µM (inactive). The GI50 (IGROV-1) was > 100 µM (inactive), the GI50 (CAKI-1) was > 100 µM (inactive) and the GI50 (SK-MEL-2) was > 100 µM (inactive). For the same molecule, the GI50 (HT-29) was > 100 µM (inactive), the GI50 (KM12) was > 100 µM (inactive) and the GI50 (KM-20L2) was > 100 µM (inactive). The GI50 (SNB-75) was > 100 µM (inactive), the GI50 (A549) was > 100 µM (inactive) and the GI50 (RPMI-8226) was > 100 µM (inactive). The GI50 (HL-60) was > 100 µM (inactive), the GI50 (NCI-H460) was > 100 µM (inactive) and the GI50 (DLD-1) was > 100 µM (inactive). For the same molecule, the GI50 (A498) was > 100 µM (inactive), the GI50 (HOP-18) was 24 µM (inactive) and the GI50 (COLO 205) was > 100 µM (inactive). The GI50 (MOLT-4) was > 100 µM (inactive), the GI50 (XF498) was 3780 nM (inactive) and the GI50 (DMS-114) was > 100 µM (inactive). For the same molecule, the GI50 (SF-539) was > 100 µM (inactive), the GI50 (HOP-92) was > 100 µM (inactive) and the GI50 (HCT-15) was > 100000 nM. For the same molecule, the GI50 (NCI-H226) was > 100 µM (inactive), the GI50 (SF-268) was > 100 µM (inactive) and the GI50 (SN12C) was > 100 µM (inactive). For the same molecule, the GI50 (Malme-3M) was > 100 µM (inactive), the GI50 (SK-MEL-5) was > 100 µM (inactive) and the GI50 (SW-620) was > 100 µM (inactive). The GI50 (ACHN) was > 100 µM (inactive), the GI50 (LOX IMVI) was > 100 µM (inactive) and the GI50 (K562) was > 100 µM (inactive). For the same molecule, the GI50 (OVCAR-4) was > 100 µM (inactive), the GI50 (HCC 2998) was > 100 µM (inactive) and the GI50 (HCT-116) was > 100 µM (inactive). The GI50 (U-251) was > 100 µM (inactive), the GI50 (LXFL 529) was > 100 µM (inactive) and the GI50 (NCI-H522) was > 100 µM (inactive). The GI50 (SK-OV-3) was > 100 µM (inactive), the GI50 (TK-10) was > 100 µM (inactive) and the GI50 (UACC-62) was > 100 µM (inactive). For the same molecule, the GI50 (M19-MEL) was > 100 µM (inactive), the GI50 (EKVX) was > 100 µM (inactive) and the GI50 (NCI-H23) was > 100 µM (inactive). The GI50 (OVCAR-3) was > 100 µM (inactive), the GI50 (SK-MEL-28) was > 100 µM (inactive) and the GI50 (OVCAR-5) was > 100 µM (inactive). The GI50 (786-0) was > 100 µM (inactive) and the GI50 (HOP-62) was > 100 µM (inactive).

From ChEMBL document CHEMBL1201862, “PubChem BioAssay data set” (2004)
